This is an account of results in article PMC11154920 (ACS Omega, 2024).

Series [1] can be described thus: Stability of DEM and DEX in rat plasma. In kind it is physicochemical.
In series [2] the test system is Cytochrome P450 2D6 (CYP2D6). To be noted: cited from earlier work.
Series [3] has as its system cytochrome P450 3A4 (CYP3A4). Particulars: cited from earlier work.
The conditions of series [4]: cited from earlier work.
The subject of a further series is CYP3A4. Particulars: in vitro; cited from earlier work.
Where [5] appears, read: autosampler stability (64 h and 3 min), HQC.
[6] abbreviates: autosampler stability (64 h and 3 min), LQC.
Where [7] appears, read: benchtop stability (19 h and 28 min), HQC, rat plasma.
Setting [8] is: benchtop stability (19 h and 28 min), LQC, rat plasma.
The mark [9] stands for this setting: freeze thaw stability (five cycles), HQC.
Where [10] appears, read: freeze thaw stability (five cycles), HQC: nominal DEM 302.52, DEX 156.76 ng/mL.
The mark [11] stands for this setting: freeze thaw stability (five cycles), LQC.
[12] abbreviates: freeze thaw stability (five cycles), LQC: nominal DEM 0.58, DEX 0.30 ng/mL.
The mark [13] stands for this setting: long-term stability (49 days), HQC.
[14] abbreviates: long-term stability (49 days), LQC.
[15] abbreviates: long-term stability (49 days), −70 °C, HQC: nominal DEM 302.52, DEX 156.76 ng/mL.
Setting [16] is: long-term stability (49 days), −70 °C, LQC: nominal DEM 0.58, DEX 0.30 ng/mL.
Where [17] appears, read: processed sample stability (28 h and 21 min), HQC.
Where [18] appears, read: processed sample stability (28 h and 21 min), LQC.
The mark [19] stands for this setting: wet extract stability (42 h and 12 min), HQC.
Where [20] appears, read: wet extract stability (42 h and 12 min), LQC.
The mark [21] stands for this setting: wet extract stability (42 h and 12 min), LQC: nominal DEM 0.58, DEX 0.30 ng/mL.

For `COc1ccc2c(c1)[C@]13CCCC[C@@H]1[C@H](C2)N(C)CC3` [DEM, Dextromethorphan], the “% difference” value in series [1] (setting [5]) is 2.32%; in series [1] (setting [6]), 3.51%; in series [1] (setting [7]), “–0.36%”; in series [1] (setting [8]), 5.29%; in series [1] (setting [9]) it was “–2.53%”; in series [1] (setting [11]), 1.72%. Further, the “% difference” value in series [1] (setting [13]) is listed as “–0.54%”; in series [1] (setting [14]), 3.51%; in series [1] (setting [17]), 2.35%; in series [1] (setting [18]) it was “–0.06%”; in series [1] (setting [19]), “–0.83%”; in series [1] (setting [20]) it was 8.86%. Also, the calculated conc. in series [1] (setting [10]) is 293.62 ± 16.24 ng/mL; in series [1] (setting [12]), 0.57 ± 0.03 ng/mL; in series [1] (setting [15]), 299.62 ± 9.41 ng/mL; in series [1] (setting [16]), 0.58 ± 0.03 ng/mL; in series [1] (setting [21]), 0.61 ± 0.05 ng/mL. Further, the “share of metabolism of DEM to DEX by CYP2D6” value in series [2] is on record as 80%. Besides, in series [3], the “share of metabolism of DEM to 3-methoxymorphinan by CYP3A4” value was 90%.
On to `CN1CC[C@@]23CCCC[C@@H]2[C@@H]1Cc1ccc(O)cc13` [DEX, dextrorphan], for which the “% difference” value in series [1] (setting [5]) was “–3.41%”; in series [1] (setting [6]), “–3.45%”; in series [1] (setting [7]) it was “–0.70%”; in series [1] (setting [8]), 0.00%; in series [1] (setting [9]) it was 0.66%; in series [1] (setting [11]), 3.45%. For the same compound, the “% difference” value in series [1] (setting [13]) is given as 0.32%; in series [1] (setting [14]), 3.45%; in series [1] (setting [17]) it was “–1.99%”; in series [1] (setting [18]), 3.45%; in series [1] (setting [19]), “–0.69%”; in series [1] (setting [20]), 6.90%. Further, the calculated conc. in series [1] (setting [10]) is on record as 156.02 ± 1.22 ng/mL; in series [1] (setting [12]) it was 0.30 ± 0.02 ng/mL; in series [1] (setting [15]) it was 155.49 ± 7.51 ng/mL; in series [1] (setting [16]) it was 0.30 ± 0.02 ng/mL; in series [1] (setting [21]), 0.31 ± 0.02 ng/mL. In addition, in series [4], the fraction rapidly glucuronidated is given as 98%.
As to `COc1cc2c(cc1O)CC[n+]1cc3c(OC)c(OC)ccc3cc1-2` [M38, jatrorrhizine], in the series on CYP3A4, the “inhibition of CYP3A4” value is “reported to inhibit CYP3A4”.
